What is called CC50 is the concentration giving 50% cytotoxicity. Low readings indicate harm at low concentration, high ones better tolerance by the cells.

Like-named read-outs stand apart in the source and are kept apart here.

EC50 and CC50 data for eleven molecules are collected here from patent publication US12122776B2, “Tetracyclic compounds and uses thereof” (Gilead Sciences, Inc., priority 2020, dated 2024).

Common to all, as to format: cell-based
One data set deals with HIV-1 (IIIB). In words: Antiviral assay in MT-4 cells. The following applies: Human immunodeficiency virus 1, MT4, 120 h; replication of HIV-1 (IIIB) in MT-4 cells, 5 days incubation, Cell Titer Glo. As for the experimental part:
Example 24: HIV MT-4 Antiviral and Cytotoxicity Assay
Antiviral Assay in MT-4 Cells
Compounds were tested in a high-throughput 384-well assay format for their ability to inhibit the replication of HIV-1 (IIIB) in MT-4 cells. Compounds were serially diluted (1:3) in DMSO on 384-well polypropylene plates and further diluted 200-fold into complete RPMI media (10% FBS, 1% P/S) using the Biotek Micro Flow and Labcyte ECHO acoustic dispenser. Each plate contained up to 8 test compounds, with negative (No Drug Control) and 5 μM AZT positive controls. MT-4 cells were pre-infected with 10 μL of either RPMI (mock-infected) or a fresh 1:250 dilution of HIV-1 IIIB concentrated virus stock. Infected and uninfected MT-4 cells were further diluted in complete RPMI media and added to each plate using a Micro Flow dispenser. After 5 days incubation in a humidified and temperature controlled incubator (37° C.), Cell Titer Glo (Promega) was added to the assay plates and chemiluminescence read using an Envision plate-reader. EC50 values were defined as the compound concentration that causes a 50% decrease in luminescence signal, and were calculated using a sigmoidal dose-response model to generate curve fits.
On the technique in general: ATP-based viability assays read luminescence as a measure of living cells.

Data set [1] can be described thus: Cytotoxicity assay in MT-4 cells. The following applies: human; uninfected MT-4 cells, 5 days incubation, Cell Titer Glo. As to the method: Cytotoxicity Assay in MT-4 Cells Assays were performed as above except uninfected MT-4 cells were added to each well containing test compound. In addition, 10 μM puromycin was added to the last column of each assay plate to assess a base level of cytotoxicity.

The subject of another data set is pLai RLuc reporter virus. In words: HIV MT-4 serum shift antiviral reporter assay. The following applies: Human immunodeficiency virus 1, MT4, 72 h. As to the method:
Example 25: HIV MT-4 Serum Shift Antiviral Reporter Assay
To quantify the amount of protein binding to human serum, compounds were serially diluted (1:3) in DMSO and acoustically transferred onto 384-well assay plates via a Labcyte ECHO robot. Each plate contained up to 8 test compounds, including negative and positive controls, (DMSO, 5 μM AZT respectively). Assay plates were prepared in duplicate, and tested in either CCM (cell culture media) or HS/CCM (human serum/cell culture media). MT-4 cells were first pre-infected with pLai RLuc reporter virus for 2 h at 37° C., then further diluted in either CCM (RPMI media, 10% FBS, 1% P/S) or HS/CCM (RPMI media, 10% FBS, 50% HS, 1% P/S), and subsequently added to each plate using a Biotek Micro Flow dispenser. After a 72-h incubation in a humidified and temperature controlled incubator (37° C.), Renilla Glo (Promega) was added to all assay plates and chemiluminescence read using an Envision plate-reader. EC50 values were defined as the compound concentration that causes a 50% decrease in luminescence signal, and were calculated using a sigmoidal dose-response model to generate curve fits. To determine the amount of protein binding, EC50 fold shifts (or EC50 shifts) were calculated by dividing EC50 (HS/CCM)/EC50 (CCM).
(Reporter assays use an easily measured gene product as a stand-in for the process of interest.)

Where [2] appears, read: read-out: Antiviral Serum Shift RLuc 50% HS.
[3] abbreviates: read-out: Antiviral Serum Shift RLuc CCM.

Take `O=C(NCc1c(F)cc(F)cc1F)c1c2n3c(c(O)c1=O)C(=O)N1CCCC[C@]3(CC2)C1` [Compound 2, (6aS)-11-hydroxy-1,10-dioxo-N-(2,4,6-trifluorobenzyl)-1,3,4,5,6,7,8,10-octahydro-2,6a-methano[1,4]diazonino[9,1,2-cd]indolizine-9-carboxamide]: the EC50 in the data set with HIV-1 (IIIB) came to 2.26 nM; with pLai RLuc reporter virus (setting [2]), 20.8 nM; with pLai RLuc reporter virus (setting [3]), 0.351 nM. Further, it took 6160 nM to reach half-maximal cytotoxicity in data set [1] (CC50 at 5 days).

For the molecule `C[C@H]1C=CC[C@]23C[C@@H](O)c4c(C(=O)NCc5c(F)cc(F)cc5F)c(=O)c(O)c(n42)C(=O)N1C3` (single isomer, unassigned) [Compound 21-1], the EC50 in the data set with HIV-1 (IIIB) was 1.04 nM; in the data set with pLai RLuc reporter virus (setting [2]) it was 27 nM; in the data set with pLai RLuc reporter virus (setting [3]), 0.26 nM. In data set [1], this molecule yielded a 50% cytotoxic concentration (CC50) at 5 days of 4840 nM.

Turning to `O=C(NCc1c(F)cc(F)cc1F)c1c2n3c(c(O)c1=O)C(=O)N1CCCC[C@@]3(C1)[C@H](O)[C@H]2O` (single isomer, unassigned) [Compound 11-1], the results for the EC50 in the data set on HIV-1 (IIIB), in the data set on pLai RLuc reporter virus (setting [2]) and in the data set with pLai RLuc reporter virus (setting [3]) were 4 nM, 3.91 nM and 1.16 nM, respectively. Besides, the midpoint of cytotoxicity in data set [1], the CC50 at 5 days, lay at 50000 nM.

Turning to `C[C@H]1C=CC[C@]23CCc4c(C(=O)NCc5c(F)cc(F)cc5F)c(=O)c(O)c(n42)C(=O)N1C3` [Compound 20, (3S,6aS)-11-hydroxy-3-methyl-1,10-dioxo-N-(2,4,6-trifluorobenzyl)-1,3,6,7,8,10-hexahydro-2,6a-methano[1,4]diazonino[9,1,2-cd]indolizine-9-carboxamide], the EC50 turned out to be 0.83 nM in the data set on HIV-1 (IIIB), 16 nM with pLai RLuc reporter virus (setting [2]) and 0.31 nM in the data set on pLai RLuc reporter virus (setting [3]). For the same molecule, it took 3340 nM to reach half-maximal cytotoxicity in data set [1] (CC50 at 5 days).

`O=C(NCc1c(F)cc(F)cc1F)c1c2n3c(c(O)c1=O)C(=O)N1CCCC[C@]3(C[C@@H]2F)C1` (single isomer, unassigned) [Compound 8-1]: the EC50 worked out at 0.86 nM with HIV-1 (IIIB), 25.4 nM in the data set with pLai RLuc reporter virus (setting [2]) and 0.429 nM in the data set on pLai RLuc reporter virus (setting [3]). This molecule showed a 50% cytotoxic concentration (CC50) at 5 days in data set [1] of 7380 nM.

Regarding `O=C(NCc1ccc(F)cc1F)c1c2n3c(c(O)c1=O)C(=O)N1CCCC[C@]3(C[C@@H]2O)C1` (single isomer, unassigned) [Compound 10-3], the values for the EC50 in the data set on HIV-1 (IIIB), in the data set with pLai RLuc reporter virus (setting [2]) and in the data set with pLai RLuc reporter virus (setting [3]) were 3.31 nM, 25.6 nM and 0.632 nM, respectively. Moreover, in data set [1], the CC50 at 5 days turned out to be 9470 nM.

As for `O=C(NCc1ccc(F)cc1F)c1c2n3c(c(O)c1=O)C(=O)N1CCCC[C@@]3(C[C@@H]2O)C1` (single isomer, unassigned) [Compound 10-4], the EC50 in the data set on HIV-1 (IIIB) was determined as 2.47 nM; in the data set on pLai RLuc reporter virus (setting [2]), 3.3 nM; with pLai RLuc reporter virus (setting [3]), 0.405 nM. Besides, in data set [1], the midpoint of cytotoxicity, the CC50 at 5 days, lay at 4610 nM.

`C[C@]1(O)C[C@@]23CCCCN(C2)C(=O)c2c(O)c(=O)c(C(=O)NCc4c(F)cc(F)cc4F)c1n23` (single isomer, unassigned) [Compound 15]: the values for the EC50 in the data set on HIV-1 (IIIB), in the data set with pLai RLuc reporter virus (setting [2]) and with pLai RLuc reporter virus (setting [3]) were 1.2 nM, 51 nM and 0.29 nM, respectively. The same molecule yielded a CC50 at 5 days in data set [1] of 3730 nM.

For `O=C(NCc1cccc(Cl)c1F)c1c2n3c(c(O)c1=O)C(=O)N1CCCC[C@@]3(CC2)C1` [Compound 5, (6aR)—N-(3-chloro-2-fluorobenzyl)-11-hydroxy-1,10-dioxo-1,3,4,5,6,7,8,10-octahydro-2,6a-methano[1,4]diazonino[9,1,2-cd]indolizine-9-carboxamide], the results for the EC50 in the data set with HIV-1 (IIIB), with pLai RLuc reporter virus (setting [2]) and in the data set on pLai RLuc reporter virus (setting [3]) were 2.24 nM, 6.04 nM and 0.278 nM, respectively. Also, the CC50 at 5 days in data set [1] was 4040 nM.

For the molecule `O=C(NCc1ccc(F)cc1F)c1c2n3c(c(O)c1=O)C(=O)N1CCCC[C@]3(C[C@H]2O)C1` (single isomer, unassigned) [Compound 10-1], the EC50 in the data set with HIV-1 (IIIB) is 4.98 nM; in the data set with pLai RLuc reporter virus (setting [2]), 121 nM; with pLai RLuc reporter virus (setting [3]) it was 0.715 nM. In data set [1], this molecule returned a CC50 at 5 days of 9560 nM.

Turning to `O=C(NCc1c(F)cc(F)cc1F)c1c2n3c(c(O)c1=O)C(=O)N1CCCC[C@]3(C[C@H]2O)C1` (single isomer, unassigned) [Compound 9-1], the figures for the EC50 in the data set on HIV-1 (IIIB), in the data set with pLai RLuc reporter virus (setting [2]) and in the data set on pLai RLuc reporter virus (setting [3]) were 3.06 nM, 200 nM and 0.685 nM, respectively. For the same molecule, half-maximal cytotoxicity in data set [1] (CC50 at 5 days) was put at 8080 nM.
